For two compounds, Activity results are on record in ChEMBL document CHEMBL1145657, “Chemistry of Acronycine I. Carbon- 13 NMR Studies of Acronycine and Related Compounds” (J Nat Prod, 1983).

In this experiment the test system is KB. As to the kind of experiment: Cytotoxicity against human KB cells. It counts as functional, cell-based.

Each structure is given as a SMILES string. Active and inactive are the calls of the source. The calls are words filed in the database; no cut-off is given here.

With `Cn1c2ccccc2c(=O)c2c(O)cc3c(c21)C=CC(C)(C)O3`, the result was inactive. In the case of `Cn1c2ccccc2c(=O)c2c(O)cc3c(c21)CCC(C)(C)O3` it was “inactive”.
